Patent US12691112B2, “FGFR tyrosine kinase inhibitors for the treatment of urothelial carcinoma” (Janssen Pharmaceutica NV, priority 2019, dated 2026)
Where “and” joins values, the source holds several entries; their conditions need not be identical. Equal entries are not always repeated.

Tests used:
[1] = system: metastatic or surgically unresectable urothelial cancer harboring select FGFR genetic alterations; experiment: Phase 2 study NCT02365597: tumor response per independent radiographic review committee (BIRC); assay type: in vivo, human
Description: (§1) Patients were contacted every 12 weeks for survival assessment.
(§2) The study was designed to enroll 180 patients with specified FGFR alterations. Of these, ≥88 were required in the selected regimen. […] Responses were assessed by investigators and an independent radiological review committee. Progression-free survival and overall survival were estimated using Kaplan-Meier product limit method. Data from patients who were progression free and alive or with unknown status were censored at last tumor assessment. Efficacy end points were analysed at primary analysis cut-off.

[2] = system: metastatic or surgically unresectable urothelial cancer harboring select FGFR genetic alterations; experiment: Phase 2 study NCT02365597: progression-free survival (Kaplan-Meier), investigator assessment; assay type: in vivo, human
Description: The term “progression-free survival” is defined as the time from first dose to date of documented evidence of disease progression or death, whichever comes first.
as §1, §2

[3] = Effect of food on pharmacokinetics in healthy subjects; assay type: in vivo, human; settings: high-fat and high-calorie meal
[4] = Excretion after single oral dose of radiolabeled erdafitinib; assay type: in vivo
[5] = human, in vivo
[6] = system: QTc interval; settings: 187 patients with cancer
[7] = Regimen 3, 8 mg continuous (n=99)
[8] = Regimen 3, chemotherapy-refractory patients, N = 87
[9] = FGFR fusions (excluding mutations), 6 mg QD
[10] = FGFR fusions (excluding mutations), 8 mg QD
[11] = FGFR fusions (excluding mutations), 10 mg 7 on/7 off
[12] = FGFR fusions (excluding mutations), Total
[13] = FGFR mutations (excluding fusions), 6 mg QD
[14] = FGFR mutations (excluding fusions), 8 mg QD
[15] = FGFR mutations (excluding fusions), 10 mg 7 on/7 off
[16] = FGFR mutations (excluding fusions), Total
[17] = FGFR mutations and fusions, 6 mg QD
[18] = FGFR mutations and fusions, 10 mg 7 on/7 off
[19] = FGFR mutations and fusions, Total

COc1cc(OC)cc(N(CCNC(C)C)c2ccc3ncc(-c4cnn(C)c4)nc3c2)c1 [erdafitinib, N-(3,5-dimethoxy-phenyl)-N′-(1-methylethyl)-N-[3-(1-methyl-1H-pyrazol-4-yl)quinoxalin-6-yl]ethane-1,2-diamine]
Complete response rate per independent radiographic review committee [1, 7]: 3 (3.0) %
Objective response rate per independent radiographic review committee [1, 7]: 34.3% and 34 (34.3) %
Partial response per independent radiographic review committee [1, 7]: 31 (31.3) %
Complete response (CR), BIRC assessment [1, 8]: 2.3%
Median DoR (95% CI), BIRC assessment [1, 8]: 5.4 (4.2, 6.9) months
ORR (95% CI), BIRC assessment [1, 8]: 32.2% and 32.2 (22.4, 42.0) %
Partial response (PR), BIRC assessment [1, 8]: 29.9%
ORR (95% CI), BIRC assessment ([1]; Regimen 3, chemotherapy-refractory, FGFR3 fusion, N = 18): 11.1 (0, 25.6) %
6-month progression-free survival rate (95% CI) [2, 9]: 0.40 (0.12, 0.67)
12-month progression-free survival rate (95% CI) [2, 9]: 0.20 (0.03, 0.47)
18-month progression-free survival rate (95% CI) [2, 9]: 0.10 (0.01, 0.36)
Progression-free survival, Median (95% CI) [2, 9]: 5.54 (0.46, 11.10) months
Progression-free survival, Q1 [2, 9]: 4.50 months
6-month progression-free survival rate (95% CI) [2, 10]: 0.25 (0.10, 0.44)
12-month progression-free survival rate (95% CI) [2, 10]: 0.15 (0.04, 0.33)
18-month progression-free survival rate (95% CI) [2, 10]: 0 (NE, NE)
Progression-free survival, Median (95% CI) [2, 10]: 2.76 (1.51, 5.45) months
Progression-free survival, Q1 [2, 10]: 1.35 months
Progression-free survival, Q3 [2, 10]: 6.64 months
6-month progression-free survival rate (95% CI) [2, 11]: 0 (NE, NE)
12-month progression-free survival rate (95% CI) [2, 11]: 0 (NE, NE)
18-month progression-free survival rate (95% CI) [2, 11]: 0 (NE, NE)
Progression-free survival, Median (95% CI) [2, 11]: 2.09 (1.41, 2.76) months
Progression-free survival, Q1 [2, 11]: 1.41 months
Progression-free survival, Q3 [2, 11]: 2.76 months
6-month progression-free survival rate (95% CI) [2, 12]: 0.28 (0.15, 0.44)
12-month progression-free survival rate (95% CI) [2, 12]: 0.15 (0.05, 0.29)
18-month progression-free survival rate (95% CI) [2, 12]: 0.05 (0.00, 0.19)
Progression-free survival, Median (95% CI) [2, 12]: 4.27 (2.56, 5.52) months
Progression-free survival, Q1 [2, 12]: 1.51 months
Progression-free survival, Q3 [2, 12]: 7.00 months
6-month progression-free survival rate (95% CI) [2, 13]: 0.22 (0.12, 0.33)
12-month progression-free survival rate (95% CI) [2, 13]: 0.07 (0.02, 0.16)
18-month progression-free survival rate (95% CI) [2, 13]: 0.05 (0.01, 0.14)
Progression-free survival, Median (95% CI) [2, 13]: 5.09 (2.83, 5.42) months
Progression-free survival, Q1 [2, 13]: 1.77 months
Progression-free survival, Q3 [2, 13]: 5.55 months
6-month progression-free survival rate (95% CI) [2, 14]: 0.41 (0.29, 0.53)
12-month progression-free survival rate (95% CI) [2, 14]: 0.15 (0.06, 0.27)
Progression-free survival, Median (95% CI) [2, 14]: 5.55 (4.83, 7.26) months
Progression-free survival, Q1 [2, 14]: 2.83 months
Progression-free survival, Q3 [2, 14]: 8.44 months
6-month progression-free survival rate (95% CI) [2, 15]: 0.25 (0.10, 0.43)
12-month progression-free survival rate (95% CI) [2, 15]: 0.17 (0.05, 0.34)
18-month progression-free survival rate (95% CI) [2, 15]: 0.08 (0.01, 0.23)
Progression-free survival, Median (95% CI) [2, 15]: 4.93 (2.73, 5.55) months
Progression-free survival, Q1 [2, 15]: 2.69 months
Progression-free survival, Q3 [2, 15]: 7.06 months
6-month progression-free survival rate (95% CI) [2, 16]: 0.31 (0.24, 0.39)
12-month progression-free survival rate (95% CI) [2, 16]: 0.12 (0.07, 0.19)
18-month progression-free survival rate (95% CI) [2, 16]: 0.06 (0.03, 0.12)
Progression-free survival, Median (95% CI) [2, 16]: 5.36 (4.21, 5.52) months
Progression-free survival, Q1 [2, 16]: 2.73 months
Progression-free survival, Q3 [2, 16]: 8.25 months
6-month progression-free survival rate (95% CI) [2, 17]: 0.50 (0.06, 0.84)
12-month progression-free survival rate (95% CI) [2, 17]: 0.50 (0.06, 0.84)
Progression-free survival, Median (95% CI) [2, 17]: 9.10 (0.39, NE) months
Progression-free survival, Q1 [2, 17]: 2.97, NE months
6-month progression-free survival rate (95% CI) [2, 18]: 0 (NE, NE)
12-month progression-free survival rate (95% CI) [2, 18]: 0 (NE, NE)
18-month progression-free survival rate (95% CI) [2, 18]: 0 (NE, NE)
Progression-free survival, Median (95% CI) [2, 18]: 5.45 (1.45, 5.52) months
Progression-free survival, Q1 [2, 18]: 1.45 months
Progression-free survival, Q3 [2, 18]: 5.52 months
6-month progression-free survival rate (95% CI) [2, 19]: 0.29 (0.04, 0.61)
12-month progression-free survival rate (95% CI) [2, 19]: 0.29 (0.04, 0.61)
Progression-free survival, Median (95% CI) [2, 19]: 5.52 (0.39, 12.65) months
Progression-free survival, Q1 [2, 19]: 1.45 months
Progression-free survival, Q3 [2, 19]: 12.65 months
Median (95% CI) progression-free survival per investigator assessment ([2]; Regimen 1, 10 mg intermittent): 4.8 (2.7 to 5.5) months
Progression-free survival rate at 12 months ([2]; Regimen 1, 10 mg intermittent): 18%
Median (95% CI) progression-free survival per investigator assessment ([2]; Regimen 2, 6 mg continuous): 5.3 (4.1 to 5.5) months
Progression-free survival rate at 12 months ([2]; Regimen 2, 6 mg continuous): 11%
Progression-free survival rate at 12 months ([2]; Regimen 3, 8 mg continuous): 19%
median progression-free survival ([2]; Regimen 3, 8 mg continuous): 5.5 months
effect of food on pharmacokinetics [3]: No clinically meaningful differences
dose recovered in feces [4]: approximately 69%
dose recovered in feces as unchanged [4]: 19%
dose recovered in urine [4]: 19%
dose recovered in urine as unchanged [4]: 13%
circulating metabolites in plasma [5]: no circulating metabolites
exposure (Cmax and AUC) versus dose [5]: increased proportionally
mean total apparent clearance (CL/F) [5]: 0.362 L/h
pharmacokinetics in specific populations [5]: No clinically meaningful trends
time to steady state [5]: 2 weeks
effect on the QTc interval [6]: no large effect (i.e., >20 ms)
